Measurements taken from ChEMBL document CHEMBL5512674, “Novel Acyl Thiourea-Based Hydrophobic Tagging Degraders Exert Potent Anti-Influenza Activity through Two Distinct Endonuclease Polymerase Acidic-Targeted Degradation Pathways” (J Med Chem, 2024).
Active and inactive are the calls of the source. The rule behind the calls is not given here.

Experiments:
[1] = biological target: T1, von Hippel-Lindau disease tumor suppressor/Polymerase acidic protein (Influenza A virus (A/Puerto Rico/8/1934(H1N1))) (UniProt P03433+P40337); assay: PROTAC activity at Influenza A virus A/WSN/33(H1N1) flag tagged Polymerase acidic protein/VHL (unknown origin) expressed in HEK293T cells assessed as degradation of PA expression at 5 uM incubated for 24 hrs by Western blotting analysis; format: cell-based
Influenza A virus [2] = assay: Anti-influenza activity against Influenza A virus A/WSN/33(H1N1) infected in HEK293T cells assessed as reduction in virus-induced cytopathic effect incubated for 48 hrs by CCK-8 assay; format: functional, organism-based; conditions: HEK-293T
[3] = biological target: T1, von Hippel-Lindau disease tumor suppressor/Polymerase acidic protein (Influenza A virus (A/Puerto Rico/8/1934(H1N1))); assay: PROTAC activity at Influenza A virus A/WSN/33(H1N1) flag tagged Polymerase acidic protein/VHL (unknown origin) expressed in HEK293T cells assessed as degradation of PA expression at 10 uM incubated for 16 hrs by Western blotting analysis; format: cell-based
[4] = biological target: T1, von Hippel-Lindau disease tumor suppressor/Polymerase acidic protein (Influenza A virus (A/Puerto Rico/8/1934(H1N1))); assay: PROTAC activity at Influenza A virus A/WSN/33(H1N1) flag tagged Polymerase acidic protein/VHL (unknown origin) expressed in HEK293T cells assessed as degradation of PA expression at 10 uM incubated for 24 hrs by Western blotting analysis; format: cell-based
Influenza A virus [5] = assay: Anti-influenza activity against Influenza A virus H3N2 infected in HEK293T cells assessed as reduction in virus-induced cytopathic effect incubated for 48 hrs by CCK-8 assay; format: functional, organism-based; conditions: H3N2, HEK-293T
[6] = biological target: T2, von Hippel-Lindau disease tumor suppressor/Polymerase basic protein 2 (Influenza A virus (strain A/Puerto Rico/8/1934 H1N1)) (UniProt P40337+P03428); assay: PROTAC activity at Influenza A virus A/WSN/33(H1N1) flag tagged Polymerase basic protein 2/VHL (unknown origin) expressed in HEK293T cells assessed as degradation of PB2 expression at 10 ug/ml incubated for 24 hrs by Western blotting analysis; format: cell-based; conditions: dose 10.0 µg/ml
T2 sequence (P03428 whole entry, looked up): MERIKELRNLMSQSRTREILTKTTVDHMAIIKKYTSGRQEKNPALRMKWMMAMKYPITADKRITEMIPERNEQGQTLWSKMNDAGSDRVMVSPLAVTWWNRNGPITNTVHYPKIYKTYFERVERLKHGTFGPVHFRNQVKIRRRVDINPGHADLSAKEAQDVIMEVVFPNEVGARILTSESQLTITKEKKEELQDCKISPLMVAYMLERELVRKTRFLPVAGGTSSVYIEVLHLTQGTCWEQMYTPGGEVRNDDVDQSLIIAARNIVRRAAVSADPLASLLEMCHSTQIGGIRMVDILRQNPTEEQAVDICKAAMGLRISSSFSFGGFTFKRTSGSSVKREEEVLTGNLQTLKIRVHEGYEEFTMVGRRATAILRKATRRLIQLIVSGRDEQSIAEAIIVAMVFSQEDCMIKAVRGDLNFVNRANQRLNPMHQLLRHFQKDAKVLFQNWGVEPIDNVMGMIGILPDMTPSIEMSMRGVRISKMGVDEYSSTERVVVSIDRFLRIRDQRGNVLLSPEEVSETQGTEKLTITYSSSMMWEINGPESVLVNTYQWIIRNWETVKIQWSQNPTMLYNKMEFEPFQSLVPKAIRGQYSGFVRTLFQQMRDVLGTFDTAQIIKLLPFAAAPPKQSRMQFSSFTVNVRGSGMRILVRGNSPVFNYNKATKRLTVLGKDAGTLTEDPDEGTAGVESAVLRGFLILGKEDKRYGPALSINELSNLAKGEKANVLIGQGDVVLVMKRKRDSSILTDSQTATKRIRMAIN
T2 sequence (P40337 whole entry, looked up): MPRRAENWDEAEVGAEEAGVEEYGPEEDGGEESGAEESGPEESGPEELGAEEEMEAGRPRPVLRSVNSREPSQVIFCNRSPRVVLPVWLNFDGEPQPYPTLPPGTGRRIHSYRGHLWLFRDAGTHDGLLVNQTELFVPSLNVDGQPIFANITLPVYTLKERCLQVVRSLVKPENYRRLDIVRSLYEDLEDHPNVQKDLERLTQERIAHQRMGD

[7] = biological target: T3, von Hippel-Lindau disease tumor suppressor/Polymerase basic protein 1 (Influenza A virus (strain A/Puerto Rico/8/1934 H1N1)) (UniProt P03431+P40337); assay: PROTAC activity at Influenza A virus A/WSN/33(H1N1) flag tagged Polymerase basic protein 1/VHL (unknown origin) expressed in HEK293T cells assessed as degradation of PB1 expression at 0.1 to 10 uM incubated for 24 hrs by Western blotting analysis; format: cell-based; conditions: dose 0.1-10 µM
T3 sequence (P03431 whole entry, looked up): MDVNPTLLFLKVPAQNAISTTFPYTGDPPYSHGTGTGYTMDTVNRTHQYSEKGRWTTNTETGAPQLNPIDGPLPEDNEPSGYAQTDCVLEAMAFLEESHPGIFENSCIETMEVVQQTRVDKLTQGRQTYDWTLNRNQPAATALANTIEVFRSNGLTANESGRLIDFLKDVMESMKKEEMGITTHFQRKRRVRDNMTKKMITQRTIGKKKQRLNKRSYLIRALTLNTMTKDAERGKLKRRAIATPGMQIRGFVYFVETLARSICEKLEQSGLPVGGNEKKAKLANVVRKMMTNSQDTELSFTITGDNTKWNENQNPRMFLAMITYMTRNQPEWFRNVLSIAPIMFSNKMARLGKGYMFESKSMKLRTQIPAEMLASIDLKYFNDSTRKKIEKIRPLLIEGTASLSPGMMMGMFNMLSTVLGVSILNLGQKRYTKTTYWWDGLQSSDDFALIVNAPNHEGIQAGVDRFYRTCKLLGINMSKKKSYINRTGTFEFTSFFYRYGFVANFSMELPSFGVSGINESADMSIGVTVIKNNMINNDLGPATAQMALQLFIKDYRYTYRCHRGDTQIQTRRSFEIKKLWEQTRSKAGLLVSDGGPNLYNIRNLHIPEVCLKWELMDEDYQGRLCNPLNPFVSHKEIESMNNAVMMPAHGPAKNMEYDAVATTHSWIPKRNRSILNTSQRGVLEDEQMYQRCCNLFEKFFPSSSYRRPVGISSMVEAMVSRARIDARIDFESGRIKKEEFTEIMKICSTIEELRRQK
T3 sequence (P40337 whole entry, looked up): as the sequence (P40337 whole entry, looked up) above

[8] = biological target: von Hippel-Lindau disease tumor suppressor/Polymerase acidic protein (Influenza A virus (A/Puerto Rico/8/1934(H1N1)), UniProt P03433+P40337); assay: PROTAC activity at Influenza A virus A/WSN/33(H1N1) flag tagged Polymerase acidic protein/VHL (unknown origin) expressed in HEK293T cells assessed as degradation of PA expression incubated for 24 hrs by Western blotting analysis; format: cell-based
Influenza B virus [9] = assay: Anti-influenza activity against Influenza B virus Yamagata/16/88 infected in HEK293T cells assessed as reduction in virus-induced cytopathic effect incubated for 48 hrs by CCK-8 assay; format: functional, organism-based; conditions: Yamagata/16/88, HEK-293T
[10] = biological target: T3, von Hippel-Lindau disease tumor suppressor/Polymerase basic protein 1 (Influenza A virus (strain A/Puerto Rico/8/1934 H1N1)); assay: PROTAC activity at Influenza A virus A/WSN/33(H1N1) flag tagged Polymerase basic protein 1/VHL (unknown origin) expressed in HEK293T cells assessed as degradation of PB1 expression at 10 ug/ml incubated for 24 hrs by Western blotting analysis; format: cell-based; conditions: dose 10.0 µg/ml
[11] = biological target: T2, von Hippel-Lindau disease tumor suppressor/Polymerase basic protein 2 (Influenza A virus (strain A/Puerto Rico/8/1934 H1N1)); assay: PROTAC activity at Influenza A virus A/WSN/33(H1N1) flag tagged Polymerase basic protein 2/VHL (unknown origin) expressed in HEK293T cells assessed as degradation of PB2 expression at 0.1 to 10 uM incubated for 24 hrs by Western blotting analysis; format: cell-based; conditions: dose 0.1-10 µM
[12] = biological target: T3, von Hippel-Lindau disease tumor suppressor/Polymerase basic protein 1 (Influenza A virus (strain A/Puerto Rico/8/1934 H1N1)); assay: PROTAC activity at Influenza A virus A/WSN/33(H1N1) flag tagged Polymerase basic protein 1/VHL (unknown origin) expressed in HEK293T cells assessed as degradation of PB1 expression at 1 ug/ml incubated for 24 hrs by Western blotting analysis; format: cell-based; conditions: dose 1.0 µg/ml
[13] = Selectivity index, ratio of CC50 for cytotoxicity against human HEK293T cells to EC50 for anti-influenza activity against Influenza A virus A/WSN/33(H1N1) infected in HEK293T cells assessed as reduction in virus-induced cytopathic effect; format: toxicity, cell-based; conditions: read-out: Ratio CC50/EC50
[14] = Cytotoxicity against human HEK293T cells assessed as reduction in cell viability incubated for 48 hrs by CCK-8 assay; format: toxicity, cell-based, HEK-293T
[15] = biological target: T2, von Hippel-Lindau disease tumor suppressor/Polymerase basic protein 2 (Influenza A virus (strain A/Puerto Rico/8/1934 H1N1)); assay: PROTAC activity at Influenza A virus A/WSN/33(H1N1) flag tagged Polymerase basic protein 2/VHL (unknown origin) expressed in HEK293T cells assessed as degradation of PB2 expression at 1 ug/ml incubated for 24 hrs by Western blotting analysis; format: cell-based; conditions: dose 1.0 µg/ml
Influenza B virus [16] = assay: Anti-influenza activity against Influenza B virus Victoria/2/87 infected in HEK293T cells assessed as reduction in virus-induced cytopathic effect incubated for 48 hrs by CCK-8 assay; format: functional, organism-based; conditions: Victoria/2/87, HEK-293T
[17] = Hepatic extraction ratio in human liver microsomes preincubated for 5 mins followed by NADPH addition and measured for 45 mins by LC-MS analysis; format: ADME, Microsome; conditions: time 50 min, read-out: ERH
[18] = Stability in human plasma assessed as compound remaining measured after 60 mins by LC-MS/MS analysis; format: ADME, cell-free; conditions: read-out: Stability
Influenza A virus [19] = assay: Anti-influenza activity against Influenza A virus A/WSN/33(H1N1) infected in MDCK cells assessed as downregulation of nucleoprotein expression at 1.56 to 100 nM incubated for 24 hrs by Western blotting analysis; format: functional, organism-based; conditions: dose 1.56-100 nM
[20] = Hepatic clearance in mouse liver microsomes preincubated for 5 mins followed by NADPH addition and measured for 45 mins by LC-MS analysis; format: ADME, Microsome; conditions: time 50 min
[21] = Intrinsic clearance in mouse liver microsomes preincubated for 5 mins followed by NADPH addition and measured for 45 mins by LC-MS analysis; format: ADME, Microsome; conditions: time 50 min, read-out: CLH
[22] = Hepatic clearance in human liver microsomes preincubated for 5 mins followed by NADPH addition and measured for 45 mins by LC-MS analysis; format: ADME, Microsome; conditions: time 50 min
[23] = Binding affinity to Influenza A virus A/WSN/33(H1N1) flag tagged Polymerase acidic protein assessed as dissociation constant incubated for 48 hrs by microscale thermophoresis assay; conditions: hek293t
[24] = Hepatic extraction ratio in dog liver microsomes preincubated for 5 mins followed by NADPH addition and measured for 45 mins by LC-MS analysis; format: ADME, Canis lupus familiaris, Microsome; conditions: time 50 min, read-out: ERH
[25] = Stability in human plasma assessed as compound remaining by LC-MS/MS analysis; format: ADME, cell-free
[26] = biological target: T1, von Hippel-Lindau disease tumor suppressor/Polymerase acidic protein (Influenza A virus (A/Puerto Rico/8/1934(H1N1))); assay: PROTAC activity at Influenza A virus A/WSN/33(H1N1) flag tagged Polymerase acidic protein/VHL (unknown origin) expressed in HEK293T cells assessed as degradation of PA expression at 0.02 to 10 uM incubated for 24 hrs by Western blotting analysis; format: cell-based; conditions: dose 0.02-10 µM
[27] = Half life in mouse liver microsomes preincubated for 5 mins followed by NADPH addition and measured for 45 mins by LC-MS analysis; format: ADME, Microsome; conditions: time 50 min
[28] = Stability in human plasma assessed as compound remaining measured after 5 mins by LC-MS/MS analysis; format: ADME, cell-free; conditions: read-out: Stability
[29] = Hepatic clearance in dog liver microsomes preincubated for 5 mins followed by NADPH addition and measured for 45 mins by LC-MS analysis; format: ADME, Canis lupus familiaris, Microsome; conditions: time 50 min
[30] = Cytotoxicity against dog MDCK cells assessed as reduction in cell viability incubated for 48 hrs by CCK-8 assay; format: toxicity, cell-based, Canis lupus familiaris
[31] = Stability in human plasma assessed as compound remaining measured after 30 mins by LC-MS/MS analysis; format: ADME, cell-free; conditions: read-out: Stability
[32] = Stability in human plasma assessed as compound remaining measured after 15 mins by LC-MS/MS analysis; format: ADME, cell-free; conditions: read-out: Stability
Influenza A virus [33] = assay: Anti-influenza activity against Influenza A virus A/PR/8/34 (H1N1) infected in MDCK cells assessed as inhibition of viral growth at 1.6 nM incubated for 48 hrs by luciferase assay relative to control; format: functional
Influenza A virus [34] = assay: Anti-influenza activity against Influenza A virus A/PR/8/34 (H1N1) infected in MDCK cells assessed as reduction in virus-induced cytopathic effect incubated for 48 hrs by CCK-8 assay; format: functional, organism-based
[35] = Intrinsic clearance in dog liver microsomes preincubated for 5 mins followed by NADPH addition and measured for 45 mins by LC-MS analysis; format: ADME, Canis lupus familiaris, Microsome; conditions: time 50 min, read-out: CLH
[36] = Intrinsic clearance in human liver microsomes preincubated for 5 mins followed by NADPH addition and measured for 45 mins by LC-MS analysis; format: ADME, Microsome; conditions: time 50 min, read-out: CLH
[37] = Half life in dog liver microsomes preincubated for 5 mins followed by NADPH addition and measured for 45 mins by LC-MS analysis; format: ADME, Canis lupus familiaris, Microsome; conditions: time 50 min
[38] = Hepatic extraction ratio in mouse liver microsomes preincubated for 5 mins followed by NADPH addition and measured for 45 mins by LC-MS analysis; format: ADME, Microsome; conditions: time 50 min, read-out: ERH
[39] = Stability in human plasma assessed as compound remaining measured after 120 mins by LC-MS/MS analysis; format: ADME, cell-free; conditions: read-out: Stability
[40] = Half life in human liver microsomes preincubated for 5 mins followed by NADPH addition and measured for 45 mins by LC-MS analysis; format: ADME, Microsome; conditions: time 50 min
Influenza A virus [41] = assay: Anti-influenza activity against Influenza A virus A/PR/8/34 (H1N1) infected in MDCK cells assessed as inhibition of viral growth at 0.8 nM incubated for 48 hrs by luciferase assay relative to control; format: functional
Influenza A virus [42] = assay: Anti-influenza activity against Influenza A virus A/PR/8/34 (H1N1) infected in MDCK cells assessed as inhibition of viral growth incubated for 48 hrs by luciferase assay; format: functional, organism-based

SMILES: Cc1ncsc1-c1ccc(CNC(=O)[C@@H]2C[C@@H](O)CN2C(=O)C(NCCCCCCCC(=O)Nc2ccc(NC(=S)NC(=O)c3ccc(C(C)(C)C)cc3)cc2)C(C)(C)C)cc1 (mixture of isomers)
- Activity [1]: Active
- EC50 (Influenza A virus [2]): > 10000 nM
- Activity [3]: Active

SMILES: CC(C)(C)OC(=O)NCCCC[C@H](NC(=O)OC(C)(C)C)C(=O)NCCCCCCCCC(=O)Nc1ccc(NC(=S)NC(=O)c2ccc(C(C)(C)C)cc2)cc1
- Activity [4]: Active
- EC50 (Influenza A virus [5]): > 10 µM
- Activity [6]: inactive
- Activity [7]: inactive
- DC50 [8]: 650 nM
- EC50 (Influenza B virus [9]): 130 nM
- Activity [10]: inactive
- Activity [11]: inactive
- Activity [12]: inactive
- EC50 (Influenza A virus [2]): 21 nM
- selectivity ratio [13]: > 4760
- CC50 at 48 h [14]: > 100 µM
- Activity [15]: inactive
- EC50 (Influenza B virus [16]): 167 nM

SMILES: CC(C)(C)c1ccc(C(=O)NC(=S)Nc2ccc(N)cc2)cc1
- hepatic extraction ratio at 0.75 h [17]: 0.359
- EC50 (Influenza A virus [5]): > 10 µM
- remaining at 1 h [18]: 113%
- Activity (Influenza A virus [19]): Active
- CLhep predicted [20]: 66.1 mL/min/kg
- CLint scaled [21]: 249 mL/min/kg
- CLhep predicted [22]: 7.43 mL/min/kg
- Kd [23]: 487 µM
- hepatic extraction ratio at 0.75 h [24]: 0.712
- EC50 (Influenza B virus [9]): 151 nM
- Stability [25]: 100%
- Activity [26]: inactive
- half-life [27]: 21.9 min
- remaining at 5 min [28]: 101%
- CLhep predicted [29]: 22 mL/min/kg
- CC50 at 48 h [30]: > 200 µM
- remaining at 0.5 h [31]: 104%
- EC50 (Influenza A virus [2]): 332 nM
- selectivity ratio [13]: 218
- remaining at 0.25 h [32]: 102%
- CC50 at 48 h [14]: 72.3 µM
- inhibition at 0.0016 µM (Influenza A virus [33]): 18%
- EC50 (Influenza A virus [34]): 24 nM
- CLint scaled [35]: 76.5 mL/min/kg
- EC50 (Influenza B virus [16]): 167 nM
- CLint scaled [36]: 11.6 mL/min/kg
- half-life [37]: 26.1 min
- hepatic extraction ratio at 0.75 h [38]: 0.735
- remaining at 2 h [39]: 112%
- half-life [40]: 138 min

SMILES: O=C1c2c(O)c(=O)ccn2N([C@@H]2c3ccccc3SCc3c2ccc(F)c3F)[C@@H]2COCCN12 [BALOXAVIR]
- EC50 (Influenza A virus [5]): 0.005 µM
- Activity (Influenza A virus [19]): Active
- inhibition at 0.0008 µM (Influenza A virus [41]): 21%
- EC50 (Influenza B virus [9]): 71 nM
- CC50 at 48 h [30]: 30.9 µM
- EC50 (Influenza A virus [2]): 4 nM
- selectivity ratio [13]: 16600
- CC50 at 48 h [14]: 63.1 µM
- IC50 (Influenza A virus [42]): 1.49 nM
- EC50 (Influenza B virus [16]): 6 nM
